Test results from paper PMC6751662, “Pharmacological and functional similarities of the human neuropeptide Y system in C. elegans challenges phylogenetic views on the FLP/NPR system” (Cell Communication and Signaling : CCS, 2019).
Where two headings read alike, the source gives them in different places. Ends that are not written are not given here.

Assays:
[1] = target: T1, NPR-11 (Caenorhabditis elegans, UniProt Q18179); assay: cAMP reporter gene assay, Gs (no forskolin), NPR-11; assay type: cell-based, C. elegans; conditions: 4 h, NPR-11-transfected HEK293, CRE-luciferase reporter, mean of >=3 independent experiments
T1 construct: expressed in transfected cells; host or cells: HEK293, transient
T1 sequence (Q18179 1-402): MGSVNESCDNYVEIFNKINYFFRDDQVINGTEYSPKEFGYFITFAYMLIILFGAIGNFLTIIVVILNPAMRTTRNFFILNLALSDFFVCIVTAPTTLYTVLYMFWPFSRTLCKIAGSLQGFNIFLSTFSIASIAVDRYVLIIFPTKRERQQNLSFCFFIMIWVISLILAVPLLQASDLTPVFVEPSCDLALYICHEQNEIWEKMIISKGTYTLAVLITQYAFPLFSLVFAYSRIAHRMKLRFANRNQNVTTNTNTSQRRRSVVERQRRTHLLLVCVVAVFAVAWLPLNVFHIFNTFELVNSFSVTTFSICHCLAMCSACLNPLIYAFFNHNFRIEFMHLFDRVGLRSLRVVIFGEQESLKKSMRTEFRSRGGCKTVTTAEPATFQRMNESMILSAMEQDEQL
Method: (§1) Activation of Gs and Gi/o was assessed with a cAMP reporter gene assay. HEK293 cells grown to 70–80% confluency in 6-well plates were transiently co-transfected with vectors encoding the receptor and the cAMP reporter gene plasmid pGL4.29 [luc2P/CRE/Hygro] (Promega; 4 μg total, 1:1 ratio) using Metafectene Pro (3 μl/μg DNA; Biontex) following the manufacturer’s instructions. 16 h post transfection, the cells were seeded into white 384-well plates at a density of 20,000 cells/well. On the next day, the medium was removed and the cells were stimulated with 20 μl of peptide solution (or forskolin as positive control) in serum-free DMEM for 4 h. For measuring Gi/o activity, the peptide solutions additionally contained 1 μM forskolin to elevate cellular cAMP levels. After incubation, the luciferase substrate OneGlo in lysis buffer (Promega) was added and the luminescence was measured in a microplate reader Tecan Spark (Tecan). Data were analyzed with GraphPad Prism 5.03 and are shown as fold of basal or fold of forskolin in case of Gαi/o activity.
(§2) For in vitro activation, data is presented as mean ± SEM of at least three independent experiments conducted in technical triplicate. […] For the C. elegans NPRs, we considered the strongest response elicited by any of the peptides downstream of a particular receptor as the receptor’s maximal signal. This may or may not be the biological maximum that can be reached by the ‘true’ endogenous agonist. For the human receptors, the response to the established endogenous agonist reflected the maximal signal.

[2] = target: T2, NPR-4b (Caenorhabditis elegans, UniProt A0A078BTK0); assay: cAMP reporter gene assay, Gs (no forskolin), NPR-4b; assay type: cell-based, C. elegans; conditions: 4 h, NPR-4b-transfected HEK293, CRE-luciferase reporter, mean of >=3 independent experiments
T2 sequence (A0A078BTK0 1-376): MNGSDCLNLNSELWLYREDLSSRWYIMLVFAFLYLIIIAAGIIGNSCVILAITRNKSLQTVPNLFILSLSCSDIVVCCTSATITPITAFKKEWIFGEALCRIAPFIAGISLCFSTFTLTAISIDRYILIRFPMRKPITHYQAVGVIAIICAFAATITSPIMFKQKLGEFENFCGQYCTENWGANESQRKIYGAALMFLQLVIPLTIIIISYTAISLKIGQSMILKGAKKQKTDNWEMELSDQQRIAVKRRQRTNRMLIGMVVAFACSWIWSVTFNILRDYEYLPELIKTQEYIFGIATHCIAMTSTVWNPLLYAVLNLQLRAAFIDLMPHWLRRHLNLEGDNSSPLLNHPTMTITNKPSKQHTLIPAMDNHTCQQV
Method: as §1, §2

[3] = target: T3, NPR-5b (Caenorhabditis elegans, UniProt Q6F3C9); assay: cAMP reporter gene assay, Gs (no forskolin), NPR-5b; assay type: cell-based, C. elegans; conditions: 4 h, NPR-5b-transfected HEK293, CRE-luciferase reporter, mean of >=3 independent experiments
T3 sequence (Q6F3C9 1-433): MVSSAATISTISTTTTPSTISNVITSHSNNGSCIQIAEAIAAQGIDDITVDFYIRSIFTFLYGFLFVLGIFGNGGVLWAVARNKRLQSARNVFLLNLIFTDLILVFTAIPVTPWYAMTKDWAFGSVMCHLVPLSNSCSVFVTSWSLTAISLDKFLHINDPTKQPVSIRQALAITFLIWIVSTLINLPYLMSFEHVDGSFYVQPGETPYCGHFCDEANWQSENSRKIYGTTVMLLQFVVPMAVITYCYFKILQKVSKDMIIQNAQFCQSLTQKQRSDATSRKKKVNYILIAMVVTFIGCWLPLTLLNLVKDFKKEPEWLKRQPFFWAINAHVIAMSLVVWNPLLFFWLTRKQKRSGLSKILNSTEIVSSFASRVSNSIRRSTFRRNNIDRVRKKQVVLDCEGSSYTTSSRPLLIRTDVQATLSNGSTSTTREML
Method: as §1, §2

[4] = target: T4, NPR-1 (Caenorhabditis elegans, UniProt Q18534); assay: cAMP reporter gene assay, Gs (no forskolin), NPR-1; assay type: cell-based, C. elegans; set-up: host or cells: HEK293; conditions: 4 h, NPR-1-transfected HEK293, CRE-luciferase reporter, mean of >=3 independent experiments
T4 sequence (Q18534 1-457): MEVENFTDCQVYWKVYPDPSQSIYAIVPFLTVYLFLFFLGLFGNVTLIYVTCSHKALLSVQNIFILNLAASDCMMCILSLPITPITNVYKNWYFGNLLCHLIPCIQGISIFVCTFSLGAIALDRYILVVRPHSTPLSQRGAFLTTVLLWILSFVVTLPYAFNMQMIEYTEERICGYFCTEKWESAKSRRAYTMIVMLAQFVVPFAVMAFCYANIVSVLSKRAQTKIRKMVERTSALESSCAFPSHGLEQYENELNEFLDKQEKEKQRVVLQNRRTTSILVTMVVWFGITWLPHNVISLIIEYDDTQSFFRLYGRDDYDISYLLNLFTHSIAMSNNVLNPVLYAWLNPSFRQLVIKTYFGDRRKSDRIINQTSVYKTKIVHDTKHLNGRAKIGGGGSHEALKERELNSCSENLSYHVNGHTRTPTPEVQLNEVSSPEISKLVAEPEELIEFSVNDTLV
Method: as §1, §2

[5] = system: NPR-3; assay: cAMP reporter gene assay, Gs (no forskolin), NPR-3; assay type: cell-based, C. elegans; conditions: 4 h, NPR-3-transfected HEK293, CRE-luciferase reporter, mean of >=3 independent experiments
Method: as §1, §2

[6] = system: NPR-6; assay: cAMP reporter gene assay, Gs (no forskolin), NPR-6; assay type: cell-based, C. elegans; conditions: 4 h, NPR-6-transfected HEK293, CRE-luciferase reporter, mean of >=3 independent experiments
Method: as §1, §2

[7] = target: T1, NPR-11; assay: cAMP reporter gene assay, Gi/o (inhibition of forskolin-induced cAMP), NPR-11; assay type: cell-based, C. elegans; conditions: for Emax: HEK293, read-out: Emax ± SEM [%]
Method: as §1, §2

[8] = Solubility of crude peptides in RP-HPLC purification solvents; assay type: physicochemical; conditions: H2O + 0.1% TFA / acetonitrile + 0.08% TFA (RP-HPLC purification conditions)
Method: C-terminally amidated peptides were synthesized in 15 μmol scale by solid-phase peptide synthesis following the Fmoc/tert-butyl strategy (reviewed in [18]) on Rink amide resin using an automated Syro II peptide synthesizer (MultiSynTech). Automated coupling reactions were performed as double couplings using 8 eq Nα-protected amino acid, activated in situ with equimolar amounts of Oxyma and […] in dimethylformamide (DMF) for 30 min. Automated Fmoc deprotection was carried out with 40% (v/v) piperidine in DMF for 3 min and 20% (v/v) piperidine in DMF for 10 min. Reactive side chains of amino acids were protected by tert-butyl (tBu for Tyr, Ser, Asp, Glu, Thr), trityl (Trt for Asn, Gln, His), 2,2,4,6,7-pentamethyldihydrobenzofuran-5-sulfonyl (Pbf for Arg) and tert-butyloxycarbonyl (Boc for Lys). Peptides were cleaved off the resin using trifluoroacetic acid (TFA)/H2O/triisopropylsilane (90/5/5, v/v/v) for 2.5 h at room temperature and precipitated in ice cold diethyl ether. All peptides were purified to > 95% purity by RP-HPLC (Shimadzu) using a Phenomenex Jupiter 10 μm Proteo 90 Å (C12) column. For most peptides, linear gradients of H2O + 0.1% trifluoroacetic acid (TFA) (eluent A) and acetonitrile (ACN) + 0.08% TFA (eluent B) were applied at a flow rate of 10 ml/minute. […] FLP-27, FLP-33, and FLP-34 were solubilized by ultrasonication at 50 °C for 10 min and subsequently purified under standard solvent conditions used pre-heated HPLC systems. […] Peptide identity was verified by matrix-assisted laser desorption/time of flight (MALDI-ToF; Ultraflex III MALDI-ToF/ToF, Bruker Daltonics) mass spectrometry, and peptide purity was evaluated with analytical RP-HPLC.

[9] = target: T4, NPR-1; assay: cAMP reporter gene assay, Gi/o (inhibition of forskolin-induced cAMP), NPR-1; assay type: cell-based, C. elegans; set-up: host or cells: HEK293; conditions: for Emax: HEK293, read-out: Emax ± SEM [%]
Method: as §1, §2

[10] = target: T2, NPR-4b; assay: cAMP reporter gene assay, Gi/o (inhibition of forskolin-induced cAMP), NPR-4b; assay type: cell-based, C. elegans
Method: as §1, with “(Tecan).” for “(Tecan). Data were analyzed with GraphPad Prism 5.03 and are shown as fold of basal or fold of forskolin in case of Gαi/o activity.”
as §2

[11] = target: T3, NPR-5b; assay: cAMP reporter gene assay, Gi/o (with forskolin), NPR-5b; assay type: cell-based, C. elegans; set-up: Emax: unit not given here; conditions: NPR-5b, transiently transfected HEK293 cells
Method: as §1, with “(Tecan).” for “(Tecan). Data were analyzed with GraphPad Prism 5.03 and are shown as fold of basal or fold of forskolin in case of Gαi/o activity.”
as §2

[12] = 1 µM forskolin (positive control)
[13] = 100 µM forskolin (positive control)

## C=C[C@@]1(C)CC(=O)[C@]2(O)[C@@]3(C)[C@@H](O)CCC(C)(C)[C@@H]3[C@H](O)[C@H](OC(C)=O)[C@@]2(C)O1 [forskolin, reference compound]
[1]; [12]
  cAMP assay Gs, NPR-11: 16.67 x-fold of basal
[1]; [13]
  cAMP assay Gs, NPR-11: 60.68 x-fold of basal
[2]; [12]
  cAMP assay Gs, NPR-4b: 16.52 x-fold of basal
[2]; [13]
  cAMP assay Gs, NPR-4b: 44.21 x-fold of basal
[3]; [12]
  cAMP assay Gs, NPR-5b: 23.17 x-fold of basal
[3]; [13]
  cAMP assay Gs, NPR-5b: 67.99 x-fold of basal
[4]; [12]
  cAMP assay Gs, NPR-1: 15.39 x-fold of basal
[4]; [13]
  cAMP assay Gs, NPR-1: 76.79 x-fold of basal
[5]; [12]
  cAMP assay Gs, NPR-3: 20.07 x-fold of basal
[5]; [13]
  cAMP assay Gs, NPR-3: 51.90 x-fold of basal
[6]; [12]
  cAMP assay Gs, NPR-6: 12.19 x-fold of basal
[6]; [13]
  cAMP assay Gs, NPR-6: 46.24 x-fold of basal

## ALNRDSLVASLNNAERLRF-NH2 [FLP-34-2]
[7]; EC50 at NPR-11, full concentration-response curve, inhibition of 1 µM forskolin-induced cAMP, transfected HEK293 (Figure S1, Table S11)
  EC50: 0.7 nM
[7]; SEM
  Emax: -0.65 ± 0.14%
  EC50: 0.631 nM
[8]
  solubility of crude peptide: partly insoluble

## KHEYLRF-NH2 [FLP-14]
[7]
  EC50: 1890 nM
[7]; SEM
  Emax: -0.86 ± 0.19%
[9]; SEM
  Emax: -0.51 ± 0.13%
  EC50: 25.1 nM
[9]; full concentration-response curve, inhibition of 1 µM forskolin-induced cAMP, transfected HEK293 (Figure S1)
  Emax at NPR-1: 53 % of FLP-21 induced response
[10]
  EC50: 2430 nM
[10]; NPR-4b, forskolin (1 µM) set to 1.00, lower values correspond to high Gi/o activity, transiently transfected HEK293 cells, mean ± SEM of at least three independent experiments, SEM
  Emax: -0.77 ± 0.2%

## ADISTFASAINNAGRLRY-NH2 [FLP-34-1]
[7]; SEM
  Emax: -0.62 ± 0.1%
  EC50: 20 nM
[11]; forskolin (1 µM) set to 1.00, increase of cAMP, mean ± SEM of at least three independent experiments, SEM
  Emax: 6.7 ± 8.21
[11]; full concentration-response curve, with 1 µM forskolin, increase of cAMP, at least three independent experiments
  EC50: 20.1 µM
[9]
  EC50: 578 nM
[9]; SEM
  Emax: -0.65 ± 0.14%
[8]
  solubility of crude peptide: partly insoluble
